Results taken from patent US20200017467A1, “NOVEL TRIAZOLE DERIVATIVES” (BAYER CROPSCIENCE AKTIENGESELLSCHAFT, priority 2017, published 2020).

Columns and labels:
[1] = tested on: Septoria tritici; experiment: Example F-C: in vivo 5 days preventive Septoria tritici test (wheat); settings: Zymoseptoria tritici, 504 h, inoculated 5 days after spraying, evaluated 21 days after inoculation, read-out: Efficacy in % Example F-C
Procedure: Example F: In Vivo Septoria tritici Test (Wheat); Comparison of Pyridinyloxy-Pyridyl Compounds According to the Invention Vs. Compounds Known from WO-A 2010/146116 [table] To produce a suitable preparation of active compound, 1 part by weight of active compound or active compound combination is mixed with the stated amounts of solvent and emulsifier, and the concentrate is diluted with water to the desired concentration. Example F-C: In Vivo 5 Days Preventive Septoria tritici Test (Wheat) To test for preventive and long-lasting activity, young plants are sprayed with a preparation of active compound or active compound combination at the stated rate of application. After the spray coating has been dried, the plants are placed in the greenhouse at a temperature of approximately 15° C. and a relative atmospheric humidity of approximately 80%. 5 days later the plants are sprayed with a spore suspension of Septoria tritici. The plants remain for 48 hours in an incubation cabinet at approximately 20° C. and a relative atmospheric humidity of approximately 100% and afterwards for 60 hours at approximately 15° C. in a translucent incubation cabinet at a relative atmospheric humidity of approximately 100%. Then the plants are placed in the greenhouse at a temperature of approximately 15° C. and a relative atmospheric humidity of approximately 80%. The test is evaluated 21 days after the inoculation. 0% means an efficacy which corresponds to that of the untreated control, while an efficacy of 100% means that no disease is observed.

[2] = tested on: Septoria tritici; experiment: Example F-B: in vivo curative Septoria tritici test (wheat); settings: Zymoseptoria tritici, 504 h, sprayed 48 hours after inoculation, evaluated 21 days after inoculation, read-out: Efficacy in % Example F-B
Procedure: Example F: In Vivo Septoria tritici Test (Wheat); Comparison of Pyridinyloxy-Pyridyl Compounds According to the Invention Vs. Compounds Known from WO-A 2010/146116 [table] To produce a suitable preparation of active compound, 1 part by weight of active compound or active compound combination is mixed with the stated amounts of solvent and emulsifier, and the concentrate is diluted with water to the desired concentration. Example F-B: In Vivo Curative Septoria tritici Test (Wheat) To test for curative activity, young plants are inoculated with a spore suspension of Septoria tritici and remain for 48 hours in an incubation cabinet at a temperature of approximately 20° C. and a relative atmospheric humidity of approximately 100%. 48 hours after the incubation, the plants are sprayed with the preparation of active compound or active compound combination at the stated rate of application. After application the plants remain for 60 hours at a temperature of approximately 15° C. in a translucent incubation cabinet at a relative atmospheric humidity of approximately 100%. Afterwards, the plants are placed in the greenhouse at a temperature of approximately 15° C. and a relative atmospheric humidity of approximately 80%. The test is evaluated 21 days after the inoculation. 0% means an efficacy which corresponds to that of the untreated control, while an efficacy of 100% means that no disease is observed.

[3] = tested on: Septoria tritici; experiment: Example F-A: in vivo preventive Septoria tritici test (wheat); settings: Zymoseptoria tritici, 504 h, evaluated 21 days after inoculation, read-out: Efficacy in % Example F-A
Procedure: Example F: In Vivo Septoria tritici Test (Wheat); Comparison of Pyridinyloxy-Pyridyl Compounds According to the Invention Vs. Compounds Known from WO-A 2010/146116 [table] To produce a suitable preparation of active compound, 1 part by weight of active compound or active compound combination is mixed with the stated amounts of solvent and emulsifier, and the concentrate is diluted with water to the desired concentration. Example F-A: In Vivo Preventive Septoria tritici Test (Wheat) To test for preventive activity, young plants are sprayed with the preparation of active compound or active compound combination at the stated rate of application. After the spray coating has been dried, the plants are sprayed with a spore suspension of Septoria tritici. The plants remain for 48 hours in an incubation cabinet at approximately 20° C. and a relative atmospheric humidity of approximately 100% and afterwards for 60 hours at approximately 15° C. in a translucent incubation cabinet at a relative atmospheric humidity of approximately 100%. The plants are placed in the greenhouse at a temperature of approximately 15° C. and a relative atmospheric humidity of approximately 80%. The test is evaluated 21 days after the inoculation. 0% means an efficacy which corresponds to that of the untreated control, while an efficacy of 100% means that no disease is observed.

Clc1ccc(Oc2cc(Cl)c(C3(Cn4cncn4)OCCO3)cn2)cc1 [reference compound]
pest or weed control at 500 ppm [1]: 80% | pest or weed control at 500 ppm [2]: 89% | pest or weed control at 500 ppm [3]: 89%
